In patent US12497359B2, “Acrylamide derivatives” (NRG Therapeutics Ltd, priority 2020, dated 2025):
In brackets after ≈: the same amount, converted by molar mass.

Legend:
mPTP = mPTP activity assay in isolated rat liver mitochondria (Ca2+ retention, Fluo5N, FLIPR); format: biochemical; settings: for mPTP Rat liver pIC50*: isolated rat liver mitochondria, average value from multiple experiments (n ≥ 2)
Source text: Pharmacological inhibition or modulation of the mPTP can be measured in well characterised ‘Ca^2+ retention’ assays performed in isolated mitochondria. In vitro, isolated mitochondria rapidly sequester exogenous Ca^2+ until the intramitochondrial Ca^2+ concentration reaches the threshold for mPTP activation. Once the pore is activated, mitochondrial integrity is compromised and the stored Ca^2+ is released. The distribution of Ca^2+ between extra- and intra-mitochondrial compartments can be measured in real time with the use of membrane-impermeant Ca^2+ sensitive fluorescent dyes. Depending on the configuration of the assay, inhibition or modulation of the mPTP either delays the opening of the pore or increases the concentration of Ca^2+ required to induce mPTP opening.
mPTP activity was measured in mitochondria freshly isolated from female Sprague Dawley (250 to 300 gram) rat livers using the following method. Cervical dislocation was performed on the rat. The liver was then perfused in-situ with ˜40 ml cold Dulbecco's Phosphate Buffered Saline (DPBS) prior to dissection and transferred into 30 ml Isolation Buffer (250 mM Sucrose, 10 mM KCl, 1 mM EGTA, 1 mM EDTA, 25 mM HEPES, adjusted to pH 7.5 with 1 M NaOH). Each lobe of the liver was then removed from the buffer, minced using tweezers and a scalpel into ˜5 mm pieces then transferred into a 50 ml Potterton dounce homogenization tube on ice containing 30 ml ice-cold centrifugation buffer (300 mM Trehalose, 25 mM HEPES, 1 mM EGTA, 1 mM EDTA, 10 mM KCl, adjusted to pH 7.5 with 1 M NaOH and supplemented with 0.1% bovine serum albumin (BSA) and complete protease inhibitor cocktail (one tablet of inhibitor per 50 mls of buffer). Homogenisation was carried out using a teflon pestle at 1800 rpm. The slurry was centrifuged at 800 g for 10 min at 4° C., then the supernatant centrifuged at 10,000 g for 10 min. The pellet was washed once with FLIPR assay buffer (75 mM Mannitol, 25 mM Sucrose, 5 mM Potassium Phosphate Monobasic, 20 mM Tris base, 100 mM KCl, 0.1% BSA adjusted to pH 7.4 with 5 M HCl) centrifuged again, then resuspended in FLIPR assay buffer to a concentration of 8.8 mg/ml protein.
Test compounds (10 mM stock in DMSO) were serially diluted in DMSO in half log steps to generate 10 test concentrations (final concentrations in assay 30 μM to 1 nM). An intermediate dilution of 5 μl DMSO samples into 247 μl FLIPR assay buffer was carried out prior to transfer of 5 μl into duplicate wells of a 384 well polypropylene assay plate. Control wells were 0.5% (v/v) DMSO and 5 μM cyclosporin A.
A stock mitochondria/Fluo5N assay solution was prepared in 5.6 ml FLIPR assay buffer (at RT) supplemented with succinate disodium salt (10 mM), rotenone (1 μM), Fluo5N pentapotassium salt (2 μM) and 1 ml mitochondria suspension, then transferred (15 μl) into the assay plate containing test compounds and incubated for 10 min at RT. Assay plates were then transferred to a FLIPR Tetra plate reader (Molecular Devices). Dye fluorescence was then measured every 3 sec for a total of 10 min. After 12 sec, a 2.5 μl bolus of CaCl2 (75 μM) was added from a source plate containing 675 μM CaCl2 in FLIPR assay buffer. IC50 values for test compounds were calculated using the fluorescence value collected at the 10 min timepoint with % inhibition calculated using the DMSO control and cyclosporin A values as […] respectively.

[1] = Microsomal clearance assay, rat liver microsomes; format: in vitro ADME; settings: average value from two experiments, read-out: Rat liver microsomes intrinsic clearance (CLint)
Procedure: The microsomal stability of test compounds was evaluated using rat liver microsomes (BioIVT) with and without the cofactors nicotinamide adenine dinucleotide phosphate (NADPH) and uridine-diphosphate-glucuronic acid (UDPGA). Reactions were performed in a final volume of 250 μl pre-warmed (37° C.) 100 mM phosphate buffer containing 5 mM MgCl2, 0.025 mg/ml alamethicin, and 0.5 mg/ml rat liver microsomes. NADPH and UDPGA were included at 1 mM and 2 mM respectively, where appropriate. Reactions were started with the addition of 1 μM (final concentration) test compound. Verapamil was used as the positive control. Solutions were incubated in a water bath at 37° C. and aliquots collected at 0.5, 5, 15, 30 and 60 min. Reactions were stopped by the addition of 5 volumes of cold acetonitrile with internal standards (200 nM caffeine and 100 nM tolbutamide). Samples were centrifuged at 3220 g for 40 min. An aliquot of supernatant was diluted 1:1 In ultra-pure H20, then used for LC-MS/MS analysis. Peak areas were determined from extracted ion chromatograms. The slope value, k, was determined by linear regression of the natural logarithm of the remaining percentage of the parent drug vs. incubation time curve. The in vitro half-life (in vitro t1/2) was determined from the slope value: in vitro t1/2=0.693/k. Conversion of the in vitro t1/2 (min) into the in vitro intrinsic clearance (in vitro CLint, in μL/min/mg protein) was done using the following equation (mean of duplicate determinations): in vitro Clint=(0.693/t1/2)*(Vol of incubation (μl)/amount of protein (mg)).

PBS solubility = format: physicochemical; settings: aqueous buffer, kinetic from dmso stock; PBS pH 7.4, 2 hr at 25° C.
Procedure: (§1) Test compounds were prepared as 10 mM stocks in DMSO and 15 μl samples transferred in duplicate into 1.5 mL glass flat bottom vials (BioTech Solutions). Fasted state simulated intestinal fluid (FaSSIF) or PBS (pH 7.4) was added to each vial to final volume of 500 μl. One PTFE encapsulated stir stick (V&P Scientific) was placed in each vial before sealing with PTFE/SIL plugs (BioTech Solutions). Vials were shaken at 1100 rpm for 2 hr at 25° C. Samples were then filtered through MultiScreen Solvinert filter plates (Millipore) via vacuum filtration. Aliquots of filtrate (5 μl) plus 5 μl DMSO were diluted in 490 μl 50% acetonitrile in water containing internal standard. The filtrate was analysed and quantified against a standard of known concentration using LC-MS/MS. Solubility values of the test compound and control compound were calculated as follows: [Sample]=(Area ratiosample*INJ VOL STD*DFsample*[STD])/(Area ratio STD*INJ VOLsample).

[2] = Hepatocyte clearance assay, rat; format: in vitro ADME; settings: cryopreserved primary rat hepatocytes, average value from two experiments, read-out: Rat heps intrinsic clearance (CLint)
Procedure: (§2) In vitro clearance studies were performed in primary rat and human hepatocytes (BioIVT). Vials of cryopreserved rat or human hepatocytes were thawed in a 37° C. water bath for 2 min. Cells were transferred into thawing medium (Williams' Medium E containing 30% Percoll, 1× GlutaMAX-1, 15 mM HEPES, 5% fetal bovine serum (FBS), 4 μg/ml insulin, 1 μM dexamethasone), centrifuged at 100 g for 10 min then resuspended in culture medium (Leibovitz's L-15 Medium) at a concentration of 0.5×10^6 viable cells/mL (number of viable cells assessed using AO/PI staining). Hepatocytes (198 μL) were transferred into wells of a 96-well non-coated plate and placed in a 37° C. incubator for 10 min. Test compound solutions were prepared from 10 mM stocks in DMSO, diluted to 100 μM in 50% (v/v in water) acetonitrile. Test compound samples (2 μl) were added to each well of hepatocytes and incubated at 37° C. Samples (25 μl) were collected at t=0, 15, 30, […] and 120 min, mixed with 6 volumes (150 μl) of acetonitrile containing internal standard (100 nM alprazolam, 200 nM caffeine and 100 nM tolbutamide), vortexed for 5 min and centrifuged for 45 min at 3220 g. An aliquot of supernatant (100 μL) was diluted with 100 μL ultra-pure water, and the mixture was used for LC/MS/MS analysis. All incubations were performed in duplicate. Peak areas were determined from extracted ion chromatograms. The slope value, k, was determined by linear regression of the natural logarithm of the remaining percentage of the parent drug vs. incubation time curve. The in vitro half-life (in vitro t1/2) was determined from the slope value: in vitro t1/2=0.693/k. Conversion of the in vitro t1/2 (in min) into the in vitro intrinsic clearance (in vitro CLint, in μL/min/1×10^6 cells) was done using the following equation (mean of duplicate determinations): • in vitro CLint=kV/N • V=incubation volume (0.2 mL) • N=number of hepatocytes per well (0.1×10^6 cells). Microsomal Clearance Assay

FaSSIF solubility = format: physicochemical; settings: kinetic from dmso stock, Fasted state simulated intestinal fluid, 2 hr at 25° C.
Procedure: as §1

[3] = Hepatocyte clearance assay, human; format: in vitro ADME; settings: cryopreserved primary human hepatocytes, average value from two experiments, read-out: Human heps intrinsic clearance (CLint)
Procedure: as §2

mPTP Rat liver pIC50* (mPTP) | microsomal CLint at 1 µM [1] [µL/min/mg] | solubility at 2 h (PBS solubility) [µM] | hepatocyte CLint at 1 µM [2] [µL/min/1e6 cells] | solubility at 2 h (FaSSIF solubility) [µM] | hepatocyte CLint at 1 µM [3] [µL/min/1e6 cells] | SMILES | activity in the rat liver mitochondria assay (mPTP; comparison among Example compounds, in words)
7.1 | 118 | 0.11 (≈ 0.034 µg/mL) | – | 2 (≈ 0.619 µg/mL) | – | Cc1c(F)cccc1NC(=O)/C=C/c1ccc2cn[nH]c2c1C [Example 1, (E)-N-(3-fluoro-2-methylphenyl)-3-(7-methyl-1H-indazol-6-yl)acrylamide] | –
7.6 | 59 | 10 (≈ 3.03 µg/mL) | 33 | – | 14 | O=C(/C=C/c1ccc2cn[nH]c2c1)NC1CCc2ccccc21 (centres unmarked) [Example 2, (E)-N-(2,3-dihydro-1H-inden-1-yl)-3-(1H-indazol-6-yl)acrylamide] | –
6.3 | 55 | 2.5 (≈ 0.803 µg/mL) | – | – | – | O=C(/C=C/c1ccc2cn[nH]c2c1)NC1CCc2cccc(F)c21 (centres unmarked) [Example 5, (E)-N-(7-fluoro-2,3-dihydro-1H-inden-1-yl)-3-(1H-indazol-6-yl)acrylamide] | –
7.2 | 38 | 4.1 (≈ 1.32 µg/mL) | – | – | – | O=C(/C=C/c1ccc2cn[nH]c2c1)NC1CCc2cc(F)ccc21 (centres unmarked) [Example 7, (E)-N-(5-fluoro-2,3-dihydro-1H-inden-1-yl)-3-(1H-indazol-6-yl)acrylamide] | –
6.9 | 41 | 6.3 (≈ 2.02 µg/mL) | – | – | – | O=C(/C=C/c1ccc2cn[nH]c2c1)NC1CCc2c(F)cccc21 (centres unmarked) [Example 8, (E)-N-(4-fluoro-2,3-dihydro-1H-inden-1-yl)-3-(1H-indazol-6-yl)acrylamide] | –
7.2 | – | 0.4 (≈ 0.129 µg/mL) | 61 | 11 (≈ 3.53 µg/mL) | – | O=C(/C=C/c1ccc2cn[nH]c2c1F)NC1CCc2ccccc21 (centres unmarked) [Example 9, (E)-N-(2,3-dihydro-1H-inden-1-yl)-3-(7-fluoro-1H-indazol-6-yl)acrylamide] | –
7.3 | 58 | 1.4 (≈ 0.45 µg/mL) | 45 | – | 26.7 | O=C(/C=C/c1cc(F)c2cn[nH]c2c1)NC1CCc2ccccc21 (centres unmarked) [Example 11, (E)-N-(2,3-dihydro-1H-inden-1-yl)-3-(4-fluoro-1H-indazol-6-yl)acrylamide] | –
7.0 | – | – | 95 | 4 (≈ 1.35 µg/mL) | – | O=C(/C=C/c1cc(Cl)c2cn[nH]c2c1)NC1CCc2ccccc21 (centres unmarked) [Example 13, (E)-3-(4-chloro-1H-indazol-6-yl)-N-(2,3-dihydro-1H-inden-1-yl)acrylamide] | –
8.1 | – | – | – | – | 21 | Cc1ccc(F)c(C)c1NC(=O)/C=C/c1ccc2cn[nH]c2c1 [Example 28, (E)-N-(3-fluoro-2,6-dimethylphenyl)-3-(1H-indazol-6-yl)acrylamide] | highest activity
6.3 | – | 59 (≈ 20.7 µg/mL) | 101 | – | 36 | O=C(/C=C/c1ccc2cn[nH]c2c1)Nc1ccccc1CN1CC(F)C1 [Example 31, (E)-N-(2-((3-fluoroazetidin-1-yl)methyl)phenyl)-3-(1H-indazol-6-yl)acrylamide] | –
6.0 | 51 | 13 (≈ 3.85 µg/mL) | – | – | – | Cc1c(F)cccc1NC(=O)/C=C/c1cnc2cn[nH]c2c1 [Example 34, (E)-N-(3-fluoro-2-methylphenyl)-3-(1H-pyrazolo[4,3-b]pyridin-6-yl)acrylamide] | –

SMILES | mPTP Rat liver pIC50* (mPTP) | microsomal CLint at 1 µM [1] [µL/min/mg] | solubility at 2 h (PBS solubility) [µM] | hepatocyte CLint at 1 µM [2] [µL/min/1e6 cells] | solubility at 2 h (FaSSIF solubility) [µM] | hepatocyte CLint at 1 µM [3] [µL/min/1e6 cells] | activity in the rat liver mitochondria assay (mPTP; comparison among Example compounds, in words)
C[C@@H]1CCCC[C@H]1NC(=O)/C=C/c1ccc2cn[nH]c2c1 (racemic) [Example 4, (E)-3-(1H-indazol-6-yl)-N-((1R,2R)-2-methylcyclohexyl)acrylamide] | 6.3 | 39 | 5.2 (≈ 1.47 µg/mL) | 68 | – | – | –
O=C(/C=C/c1ccc2cn[nH]c2n1)NC1CCc2ccccc21 (centres unmarked) [Example 36, (E)-N-(2,3-dihydro-1H-inden-1-yl)-3-(1H-pyrazolo[3,4-b]pyridin-6-yl)acrylamide] | 6.3 | – | – | – | 45 (≈ 13.7 µg/mL) | 12 | –
